Measured values reported in ChEMBL document CHEMBL1201862, “PubChem BioAssay data set” (2004).
The source made the active and inactive calls. Cut-off read from the data, not from the text of the source, for most assays here: actives have a measured IC50 and inactives only a lower limit.

Columns and labels:
[1] = biological target: T1, Sentrin-specific protease 6 (Homo sapiens, UniProt Q9GZR1); test: SAR Analysis of small molecule inhibitors of Sentrin-specific protease 6 (SENP6) using a Luminescent assay. [Related pubchem assays (depositor defined):AID2582, AID2599]; assay type: functional
T1 sequence (Q9GZR1 whole entry): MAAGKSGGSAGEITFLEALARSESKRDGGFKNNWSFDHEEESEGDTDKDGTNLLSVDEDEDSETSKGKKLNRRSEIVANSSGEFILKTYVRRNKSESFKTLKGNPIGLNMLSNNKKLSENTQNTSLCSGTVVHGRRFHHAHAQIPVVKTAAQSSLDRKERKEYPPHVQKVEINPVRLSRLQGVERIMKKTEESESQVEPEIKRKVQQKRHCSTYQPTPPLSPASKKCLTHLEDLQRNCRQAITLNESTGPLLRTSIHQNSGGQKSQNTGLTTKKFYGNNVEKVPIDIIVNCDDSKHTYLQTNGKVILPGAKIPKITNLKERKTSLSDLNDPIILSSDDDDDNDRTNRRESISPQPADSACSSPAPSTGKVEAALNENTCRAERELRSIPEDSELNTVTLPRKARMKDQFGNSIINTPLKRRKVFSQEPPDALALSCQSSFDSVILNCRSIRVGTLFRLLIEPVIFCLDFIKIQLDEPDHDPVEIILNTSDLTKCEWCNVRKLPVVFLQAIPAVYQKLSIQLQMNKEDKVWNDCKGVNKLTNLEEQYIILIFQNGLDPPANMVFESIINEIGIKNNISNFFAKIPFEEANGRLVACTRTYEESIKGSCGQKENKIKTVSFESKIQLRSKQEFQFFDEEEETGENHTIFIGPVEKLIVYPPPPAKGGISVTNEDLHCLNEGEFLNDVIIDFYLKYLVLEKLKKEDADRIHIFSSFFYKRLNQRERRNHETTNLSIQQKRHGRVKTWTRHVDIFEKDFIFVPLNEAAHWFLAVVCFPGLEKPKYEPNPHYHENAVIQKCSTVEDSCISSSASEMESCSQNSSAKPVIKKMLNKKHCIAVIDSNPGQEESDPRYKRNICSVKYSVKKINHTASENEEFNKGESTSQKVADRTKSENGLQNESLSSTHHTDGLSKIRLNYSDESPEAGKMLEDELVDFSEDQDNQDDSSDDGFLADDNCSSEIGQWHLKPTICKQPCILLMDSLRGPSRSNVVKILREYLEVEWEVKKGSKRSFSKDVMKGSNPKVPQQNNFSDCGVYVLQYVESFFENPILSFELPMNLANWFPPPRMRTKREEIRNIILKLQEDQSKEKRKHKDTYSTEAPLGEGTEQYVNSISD

Caspase-3 [2] = biological target: T2, Caspase-3 (Homo sapiens, UniProt P42574); test: SAR Analysis of small molecule inhibitors of Sentrin-specific proteases (SENPs) using a Caspase-3 Selectivity assay. [Related pubchem assays (depositor defined):AID2540, AID2599, AID434973, AID489001]; assay type: functional
T2 sequence (P42574 whole entry): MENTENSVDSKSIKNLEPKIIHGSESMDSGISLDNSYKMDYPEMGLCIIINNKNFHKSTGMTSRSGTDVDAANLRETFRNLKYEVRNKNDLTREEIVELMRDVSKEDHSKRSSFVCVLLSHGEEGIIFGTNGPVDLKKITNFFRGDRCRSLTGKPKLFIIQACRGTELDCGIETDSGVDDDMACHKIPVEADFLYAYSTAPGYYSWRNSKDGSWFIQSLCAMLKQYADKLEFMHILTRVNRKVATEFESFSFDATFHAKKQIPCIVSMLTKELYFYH

[3] = biological target: T3, Sentrin-specific protease 8 (Homo sapiens, UniProt Q96LD8); test: inhibition of human SENP8 cleavage activity – biochemical, luminescence, SAR follow-up (AID 504501); assay type: functional
T3 sequence (Q96LD8 whole entry): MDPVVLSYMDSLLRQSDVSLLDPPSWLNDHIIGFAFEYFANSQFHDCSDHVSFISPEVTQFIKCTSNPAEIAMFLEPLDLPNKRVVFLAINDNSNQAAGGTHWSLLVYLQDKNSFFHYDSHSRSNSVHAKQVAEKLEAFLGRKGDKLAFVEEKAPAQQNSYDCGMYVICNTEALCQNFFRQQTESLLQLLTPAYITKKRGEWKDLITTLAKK

[4] = biological target: T4, Sentrin-specific protease 7 (Homo sapiens, UniProt Q9BQF6); test: inhibition of human SENP7 cleavage activity – biochemical, luminescence, SAR follow-up (AID 504497); assay type: functional
T4 sequence (Q9BQF6 whole entry): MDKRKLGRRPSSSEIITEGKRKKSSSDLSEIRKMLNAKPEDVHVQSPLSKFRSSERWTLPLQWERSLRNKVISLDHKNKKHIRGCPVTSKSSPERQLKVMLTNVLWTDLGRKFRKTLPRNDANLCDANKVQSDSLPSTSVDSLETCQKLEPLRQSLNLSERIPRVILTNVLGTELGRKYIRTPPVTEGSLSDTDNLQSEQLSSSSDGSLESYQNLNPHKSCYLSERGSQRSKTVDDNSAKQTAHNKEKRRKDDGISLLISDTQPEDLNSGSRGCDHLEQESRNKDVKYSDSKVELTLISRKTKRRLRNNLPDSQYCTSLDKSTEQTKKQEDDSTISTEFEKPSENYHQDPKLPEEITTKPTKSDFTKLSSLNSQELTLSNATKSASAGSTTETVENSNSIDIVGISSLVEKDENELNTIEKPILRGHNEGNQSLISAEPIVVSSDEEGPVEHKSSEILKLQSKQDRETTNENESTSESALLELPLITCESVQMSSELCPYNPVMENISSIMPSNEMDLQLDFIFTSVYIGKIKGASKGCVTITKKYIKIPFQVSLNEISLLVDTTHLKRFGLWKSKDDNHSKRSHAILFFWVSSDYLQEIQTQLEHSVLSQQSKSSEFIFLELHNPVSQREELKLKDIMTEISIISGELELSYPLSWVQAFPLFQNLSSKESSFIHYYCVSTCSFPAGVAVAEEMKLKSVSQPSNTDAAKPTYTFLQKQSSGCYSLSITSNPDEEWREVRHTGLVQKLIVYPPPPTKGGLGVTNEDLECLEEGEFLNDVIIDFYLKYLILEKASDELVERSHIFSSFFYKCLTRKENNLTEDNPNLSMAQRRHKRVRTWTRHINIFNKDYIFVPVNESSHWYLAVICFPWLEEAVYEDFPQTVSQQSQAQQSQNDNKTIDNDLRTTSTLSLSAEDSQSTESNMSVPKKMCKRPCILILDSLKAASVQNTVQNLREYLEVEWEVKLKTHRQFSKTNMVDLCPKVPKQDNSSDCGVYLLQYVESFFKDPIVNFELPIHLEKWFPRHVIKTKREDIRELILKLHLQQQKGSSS

INS1 = test: suppression of NO production in INS-1E cells – cell-based, Griess absorbance, dry powder, set 2, dose response (AID 488868); assay type: functional; settings: Rattus norvegicus
Caspase-3 [5] = biological target: T2, Caspase-3; test: inhibition of recombinant caspase-3 activity – biochemical, luminescence, set 2, selectivity assay for SENP protease inhibitor project, SAR follow-up (AID 588599); assay type: functional
[6] = biological target: T3, Sentrin-specific protease 8; test: inhibition of sentrin protease 8 – biochemical, luminescence, set 2, SAR follow-up (AID 588601); assay type: functional
[7] = biological target: T1, Sentrin-specific protease 6; test: inhibition of human SENP6 catalytic domain – biochemical, luminescence, set 2, SAR follow-up (AID 588598); assay type: functional
[8] = biological target: T4, Sentrin-specific protease 7; test: inhibition of human SENP7 cleavage activity – biochemical, luminescence, set 2, SAR follow-up (AID 588600); assay type: functional
Insulin-degrading enzyme [9] = biological target: T5, Insulin-degrading enzyme (Homo sapiens, UniProt P14735); test: cellular IDE activation of Abeta substrate cleavage – fluorescence polarization, HEK cells, dose response (AID 588439); assay type: functional, cell-based
[10] = Luminescence Cell-Based Dose Retest to Confirm Inhibitors of Cancer Stem Cells. [Related pubchem assays (depositor defined):AID2717, AID2721]; assay type: functional; settings: Homo sapiens
HEK293 [11] = test: optical interference in Abeta FP readout, dose response, artefact control for IDE activator project, biochemical, fluorescence polarization (AID 588442); assay type: functional, cell-based; settings: Homo sapiens
Insulin-degrading enzyme [12] = biological target: T5, Insulin-degrading enzyme; test: recombinant IDE activation, cell-free – biochemical, fluorescence polarization, counter-screen for IDE activator project, dose response (AID 588681)
HEK293 [13] = test: membrane integrity loss in HEK cells – cell-based, fluorescence, cytotoxicity control for IDE activator project, dose response (AID 588440); assay type: functional; settings: Homo sapiens;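 note: cytotoxicity by LDH release measuring loss of membrane integrity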

T5 sequence (P14735 whole entry): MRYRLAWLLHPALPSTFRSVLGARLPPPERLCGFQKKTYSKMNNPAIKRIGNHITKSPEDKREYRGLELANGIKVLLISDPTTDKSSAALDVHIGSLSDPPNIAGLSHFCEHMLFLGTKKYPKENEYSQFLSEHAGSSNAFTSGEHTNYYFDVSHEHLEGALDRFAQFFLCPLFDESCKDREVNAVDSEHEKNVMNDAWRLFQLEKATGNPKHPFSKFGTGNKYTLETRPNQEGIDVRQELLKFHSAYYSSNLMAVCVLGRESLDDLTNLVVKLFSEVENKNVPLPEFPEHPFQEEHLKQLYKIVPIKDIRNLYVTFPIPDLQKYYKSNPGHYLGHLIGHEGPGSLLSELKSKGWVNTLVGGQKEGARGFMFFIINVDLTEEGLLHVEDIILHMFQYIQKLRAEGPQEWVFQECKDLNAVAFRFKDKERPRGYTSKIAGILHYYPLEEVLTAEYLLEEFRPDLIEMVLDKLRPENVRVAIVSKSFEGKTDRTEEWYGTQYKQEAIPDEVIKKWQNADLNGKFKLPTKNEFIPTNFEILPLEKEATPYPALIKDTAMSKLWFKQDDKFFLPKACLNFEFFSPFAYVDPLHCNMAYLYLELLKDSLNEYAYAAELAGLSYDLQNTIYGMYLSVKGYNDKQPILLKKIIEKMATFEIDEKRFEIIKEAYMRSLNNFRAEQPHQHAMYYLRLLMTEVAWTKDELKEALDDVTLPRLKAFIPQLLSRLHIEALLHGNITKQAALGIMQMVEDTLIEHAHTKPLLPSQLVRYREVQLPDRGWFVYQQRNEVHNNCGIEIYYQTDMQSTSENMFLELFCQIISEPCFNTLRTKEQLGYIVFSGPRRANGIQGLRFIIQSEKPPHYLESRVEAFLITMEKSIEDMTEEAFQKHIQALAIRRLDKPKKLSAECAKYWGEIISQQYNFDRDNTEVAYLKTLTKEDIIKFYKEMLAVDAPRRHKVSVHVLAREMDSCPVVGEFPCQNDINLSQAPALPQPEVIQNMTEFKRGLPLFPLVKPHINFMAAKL

In the case of `CCC(=O)Nc1ccc2oc(-c3ccc(Cl)cc3)nc2c1`, the IC50 [1] is reported as 1.81 µM (active), the IC50 (Caspase-3 [2]) is reported as 2.27 µM (active) and the IC50 [3] is reported as 1.76 µM (active). The IC50 [4] was 1.31 µM (active).
With `C[C@@H]1CN([C@@H](C)CO)C(=O)c2cccc(NC(=O)Nc3cccc4ccccc34)c2O[C@H]1CN(C)S(=O)(=O)c1cccs1` the AC50 (INS1) was 206 µM (active).
With `O=C1CN(C(=O)C(=O)c2c[nH]c3ccccc23)c2ccccc2N1` the IC50 (Caspase-3 [5]) was > 99 µM (inactive), the IC50 [6] was > 99 µM (inactive) and the IC50 [7] was > 99 µM (inactive). For the same compound, the IC50 [8] was > 99 µM (inactive).
In the case of `C=CCN1C(=O)/C(=C2\C(=O)Nc3ccccc32)S/C1=N/c1ccc(O)cc1`, the EC50 (Insulin-degrading enzyme [9]) is reported as 16.6 µM (inactive), the AC50 [10] is reported as 4.14 µM (active) and the EC50 (HEK293 [11]) is reported as > 54.7 µM (inactive). For the same compound, the EC50 (Insulin-degrading enzyme [12]) was > 54.7 µM (inactive) and the IC50 (HEK293 [13]) was 26.6 µM (inactive).
